Results on ten compounds are retold here after paper PMC6209770 (Frontiers in Pharmacology, 2018).

The subject of test [1] is mice. Put plainly: Four plate test. In kind it is in vivo.
In test [2] the test system is mice. Put plainly: Elevated plus maze test. It counts as in vivo.
Test [3] addresses GABAA receptor. The note with it: read-out: GABAA receptors Ki ± SEM; rat cerebral cortex, [3H]-muscimol 1 nM.
Test [4] relates to mice. Put plainly: Four plate test after pretreatment with pCPA, WAY-100635 or AMPT. In kind it is in vivo.
Test [5] relates to mice. Put plainly: Spontaneous locomotor activity. It counts as in vivo.
The target of test [6] is D2 receptor (Homo sapiens, UniProt P14416). Put plainly: cell-based.
Test [7] has as its system serotonin levels. On the set-up: method as in Imaizumi et al. (1996). The note with it: 3-day treatment with pCPA 200 mg/kg; ref Imaizumi et al. (1996); cited from earlier work.
The target in test [8] is 5-HT2A receptor (Homo sapiens, UniProt P28223). It counts as cell-based.
Test [9] concerns the target T1, 5-HT1A receptor (Homo sapiens, UniProt P08908).
T1 sequence (P08908 1-422): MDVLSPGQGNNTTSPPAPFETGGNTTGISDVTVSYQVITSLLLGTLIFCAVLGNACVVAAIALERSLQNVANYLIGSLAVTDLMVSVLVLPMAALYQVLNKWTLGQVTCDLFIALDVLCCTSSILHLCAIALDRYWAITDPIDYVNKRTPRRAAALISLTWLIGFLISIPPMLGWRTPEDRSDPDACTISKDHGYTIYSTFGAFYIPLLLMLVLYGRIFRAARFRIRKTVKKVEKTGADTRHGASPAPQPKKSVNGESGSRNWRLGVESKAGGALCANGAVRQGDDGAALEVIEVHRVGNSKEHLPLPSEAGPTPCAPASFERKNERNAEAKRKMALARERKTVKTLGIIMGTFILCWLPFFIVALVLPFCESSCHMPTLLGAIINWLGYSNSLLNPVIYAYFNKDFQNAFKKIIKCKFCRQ
Put plainly: SureFire ERK-phosphorylation AlphaLISA assay, CHO-5HT1A cells. As to conditions: 5-HT1A pERK1/2 assay. For orientation: Bead proximity is the source of the signal in Alpha formats.

Test [10] deals with T1, 5-HT1A receptor. More on the design: expressed in transfected cells; host or cells: CHO (CHO-5HT1A); method as in Kubacka et al., 2016. The note with it: 5-HT1A Ca2+ assay, ref Kubacka et al., 2016, cited from earlier work.
Test [11] addresses T2, human serotonin 5-HT1A receptor (Homo sapiens, UniProt P08908).
T2 sequence (P08908 1-422): T1 sequence (P08908 1-422)
The experiment in a line: cAMP assay (TR-FRET), CHO-K1 cells. The note with it: 5-HT1A cAMP assay.

Test [12] deals with T1, 5-HT1A receptor. Put plainly: Tango LiveBLAzer β-arrestin recruitment assay, HTR1A-bla U2OS cells. As to conditions: 5-HT1A ß-arrestin assay.
[13] abbreviates: antagonist mode, serotonin EC80 (45 nM).
[14] abbreviates: antagonist mode, serotonin EC80 (120 nM).
Where [15] appears, read: antagonist mode, serotonin EC80 (300 nM).

The Ki is the dissociation constant of the complex between target and ligand, obtained from inhibition or displacement. By Emax is commonly meant the maximal effect, on the per cent scale that the assay sets. What is called Kb is the equilibrium dissociation constant of an antagonist, usually derived from a functional assay.

Several values for one entry are separate records, joined by “and”; a condition that tells them apart may be missing. Equal entries are not always repeated. Where two headings read alike, the source gives them in different places.

In the case of `CC1CCN(CC[C@H]2CCCN2S(=O)(=O)c2cccc(O)c2)CC1` [SB269970], the “Increase in the number of punished crossings vs non-treated control” value in [1] ([…] i.p. 30 min before test (but not 1.25 or 5 mg/kg)) is reported as 137.5%.
For `CN1C(=O)CN=C(c2ccccc2)c2cc(Cl)ccc21` [Diazepam, diazepam], in test [2] (mouse, in vivo), the “Increase in number of open arm entries vs non-treated control” value was 78.5% and 73.9% and 124.6%; the “Increase in time spent in the open arms vs non-treated control” value is 84.6% and 59.9%. The Ki in test [3] was 5.6 ± 0.7 nM.
`CC(N)(Cc1ccc(O)cc1)C(=O)O` (stereo not drawn) [AMPT, α-methyl-p-tyrosine]: in [4] (AMPT alone, 100 mg/kg i.p.), the “Effect on number of punished crossings” value was “had no effect”. The “Number of crossings ± SEM” value in [5] (AMPT experiment, AMPT 100 mg/kg) worked out at 24.5.
`CCCN(CCC)C1CCc2cccc(O)c2C1` (stereo not drawn) [8-OH-DPAT]: the “Increase in time spent in the open arms vs non-treated control” value in [2] (2 mg/kg, 15 min before test (but not 0.25, 0.5 or 1 mg/kg)) is recorded as 154.3%. Moreover, in [2] (8-OH-DPAT doses tested up to 2 mg/kg, 15 min before test), the “Effect on number of open arm entries” value is on record as “no effect”. The “Increase in the number of punished crossings” value in [1] (0.5 mg/kg, 15 min before test (but not 0.25, 1 or 2 mg/kg)) amounted to 38.2%.
`CN1CCc2cccc3c2[C@H]1Cc1ccc(O)c(O)c1-3` [Apomorphine]: the Emax in test [6] (read-out: Agonist mode Emax %) was found to be 100%; in [6] (read-out: Antagonist mode Emax %), 1%.
Regarding `N[C@@H](Cc1ccc(Cl)cc1)C(=O)O` (racemic) [pCPA, p-Chlorophenylalanine], in test [4] (pCPA alone, 200 mg/kg i.p., three days), the “Effect on number of punished crossings” value is given as “did not influence”. The “Number of crossings ± SEM” value in test [5] (pCPA experiment, pCPA 200 mg/kg) is 29.4. In addition, in [7], the “Reduction of serotonin levels in the cortex” value is given as 30%, the “Reduction of serotonin levels in the diencephalon” value is given as 35%, the “Reduction of serotonin levels in the midbrain” value was 24% and the “Reduction of serotonin levels in the pons with medulla” value is 34%.
In the case of `CC(N)Cc1c[nH]c2ccc(O)cc12` (stereo not drawn) [α-Methylserotonin, α-methylserotonin], in [8] (agonist mode), the “Agonist mode Emax %” value stood at 100% and the “Agonist mode pEC50” value came to 8.70. Further, in test [8] (antagonist mode), the “Antagonist mode Emax %” value stood at 1%.
`COc1ccccc1N1CCN(CCCOc2cc(C)ccc2C)CC1.Cl` [HBK-17, 1-[(2,5-dimethylphenoxy)propyl]-4-(2-methoxyphenyl)piperazine hydrochloride]: the “Number of crossings ± SEM” value in test [5] (mouse, in vivo, ip, 5 mg/kg) is 44.8.
Regarding `COc1ccccc1N1CCN(CC(C(=O)NC(C)(C)C)c2ccccc2)CC1` (stereo not drawn) [WAY-100135], the “Agonist mode Emax %” value in test [9] (agonist mode) is reported as 2%; in test [10] (agonist mode), 2%; in [11] (agonist mode, 10 μM forskolin), 2%; in [12] (agonist mode, relative to serotonin), 1%. Moreover, the “Antagonist mode Emax %” value in test [9] (setting [13]) is recorded as 0%; in test [10] (antagonist mode), 0%; in [11] (setting [14]) it was 8%; in test [12] (setting [15]), 5%. Moreover, the “Antagonist mode pIC50” value in test [9] (setting [13]) is 7.90; in [10] (antagonist mode), 8.3; in [11] (setting [14]) it was 7.9; in test [12] (setting [15]), 8.1. The antagonist equilibrium constant (Kb) in test [9] (read-out: Antagonist mode Kb, antagonist mode, serotonin EC80 (45 nM)) was 2.7 nM; in test [10] (antagonist mode) it was 0.8 nM; in [11] (read-out: Antagonist mode Kb, antagonist mode, serotonin EC80 (120 nM)) it was 6.4 nM; in test [12] (read-out: Antagonist mode Kb, antagonist mode, serotonin EC80 (300 nM)), 5.9 nM.
With `COc1ccccc1N1CCN(CCN(C(=O)C2CCCCC2)c2ccccn2)CC1` [WAY-100635], in [4] (WAY-100635 alone, 0.3 mg/kg s.c.), the “Effect on number of punished crossings” value is “did not influence”. For the same compound, the “Number of crossings ± SEM” value in [5] (WAY-100635 experiment, WAY-100635 0.3 mg/kg) is reported as 27.9.
